The record followed here is patent US9387198B1 (priority 2015, dated 2016).

For series [1], the target named is T1, human serum albumin (HSA) (Homo sapiens, UniProt P02768).
T1 construct: purchased Sigma Aldrich, St. Louis, Mo., USA
The series is described as follows: Fluorescence-based anti-glycation assay (fructose-mediated glycation of HSA). The format is biochemical. Particulars: compared to reference compound rutin. The procedure:
Prior to incubation, rutin (reference compound) and 6-nitrobenzimidazole derivatives were added to a reaction mixture to a final concentration of 1 mM. DMSO was used as a solvent (final concentration: 10%) in this assay.
Percentage Inhibition=(1−Fluorescence of test compounds/Fluorescence of glycated-HSA)×100 Where, Test compounds=6-Nitrobenzimidazole derivatives

Series [2] can be described thus: Cytotoxicity evaluation by MTT-assay. As to conditions: mouse, mouse fibroblast (3T3) cells. In general terms: Tetrazolium assays rely on reduction of a dye to a coloured formazan, in cell work by metabolically active cells.
Description: (§1) Cytotoxicity evaluation was also carried out against mouse fibroblast (3T3) cell-line by employing MTT-assay.
In series [3] the test system is rat hepatocytes (CC1-Cell line). The series is described as follows: Fructose-derived AGE-mediated diminished growth of hepatocytes (MTT assay). The format is cell-based. As to conditions: for effect on hepatocytes growth and proliferation (in words) / Percentage Inhibition (remaining growth inhibition of hepatocytes versus normal cells): AGEs 200 μg/mL; for Percentage Inhibition (remaining growth inhibition of hepatocytes versus normal cells): lower = more growth restored; for Absorbance (Average), AGE-mediated diminished growth of the hepatocytes: co-incubated with AGEs 200 μg/mL, 540 nm. The procedure: The mixture was incubated at 37° C. for 12 weeks under dark sterile environment. […] The cells treated with Triton X-100 were used as a blank, while normal cells remain untreated were used as a control.
MTT Assay: Following 24 hours of incubation, the plate was decanted to remove the medium and the cells were washed with 1×PBS. The MTT-dye (50 μL: 2 mg/mL) was then loaded to each well. 200 μL (final reaction volume) was reconstituted by serum free-MEM (Minimum essential media) in a dark environment. The plate was incubated in 5% CO2 containing incubator at 37° C. for the next 4 hours. At the end of the incubation, the medium was removed and the crystals were dissolved by adding 100 μL DMSO into each well.
Measurement of Absorbance: The intensity of purple colored solution was measured at the wavelength of 540 nm, using Spectra Max Spectrophotometer (Applied Biosystems, CA, USA).
Where, Blank=Triton X-100 treated rat hepatocytes Control=Normal rat hepatocytes Test Compound=6-nitrobenzimidazole derivatives

Series [4] has the same test system. The series is described as follows: Fructose-derived AGE-induced intracellular ROS production (DCFH-DA technique). The format is cell-based. Particulars: for effect on ROS production (in words): AGE 200 μg/mL; for Fluorescence (Average), AGE-mediated intracellular ROS production: co-incubated with AGEs 200 μg/mL, 24 hours. The procedure:
Procedure of the Assay: Briefly, 6×10^4 cells/mL cells (normal rat hepatocytes: CC1-Cell line) were seeded on a 96-well plate and kept for 24 hours in an incubator, containing 5% CO2 at 37° C. […] Initially the cells were incubated with 10 μM DCFH-DA non fluorescent probe, for 45 mins in the dark environment. […] The control was treated with 0.5% H2O2 just before 1 hour prior to halt the incubation period.
Detection of Fluorescence Intensity: The intensity of fluorescence was measured at an excitation 490 nm and an emission 520 nm, using Spectra Max Spectrophotometer (Applied Biosystems, CA, USA).
Where, Blank=Normal rat hepatocytes Control=Rat hepatocytes treated with 0.5% […] Test compound=6-Nitrobenzimidazole derivative

The next series can be described thus: in vitro. As to conditions: mouse.
Where [5] appears, read: Rattus norvegicus, Hepatocyte, 24 h, read-out: Percentage Inhibition of AGE-mediated intracellular ROS production.

T1 sequence (P02768 25-609): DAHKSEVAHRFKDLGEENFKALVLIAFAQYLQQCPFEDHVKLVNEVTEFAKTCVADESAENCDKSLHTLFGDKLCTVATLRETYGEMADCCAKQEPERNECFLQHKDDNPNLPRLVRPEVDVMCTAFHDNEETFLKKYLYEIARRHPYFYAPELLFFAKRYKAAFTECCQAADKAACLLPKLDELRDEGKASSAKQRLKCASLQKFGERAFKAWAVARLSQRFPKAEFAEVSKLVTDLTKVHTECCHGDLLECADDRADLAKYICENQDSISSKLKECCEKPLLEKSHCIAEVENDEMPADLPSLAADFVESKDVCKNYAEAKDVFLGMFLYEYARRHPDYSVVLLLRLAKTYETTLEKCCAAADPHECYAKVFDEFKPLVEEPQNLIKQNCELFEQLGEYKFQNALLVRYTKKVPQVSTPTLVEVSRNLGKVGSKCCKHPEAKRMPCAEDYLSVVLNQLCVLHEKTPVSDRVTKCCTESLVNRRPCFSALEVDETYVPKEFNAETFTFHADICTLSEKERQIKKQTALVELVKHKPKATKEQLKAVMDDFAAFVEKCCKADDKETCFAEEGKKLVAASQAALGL
Description for in vitro: as §1

As for `O=[N+]([O-])c1ccc2nc(-c3cccc(O)c3O)[nH]c2c1` [Compound 1, 3-(6-Nitro-1H-benzimidazol-2-yl)-1,2-benzenediol], the “anti-glycation activity (in words)” value in series [1] is on record as “significant anti-glycation activity”. This compound registered a cytotoxicity in series [2] of 35.9%.
The like results for `O=[N+]([O-])c1ccc2nc(-c3cc(O)ccc3O)[nH]c2c1` [Compound 2, 2-(6-Nitro-1H-benzimidazol-2-yl)-1,4-benzenediol] were, in that order, “significant anti-glycation activity” and 21.1%.
As to `O=[N+]([O-])c1ccc2nc(-c3ccsc3)[nH]c2c1` [Compound 3, 6-Nitro-2-(3-thienyl)-1H-benzimidazole], the cytotoxicity in series [2] is 19.7%.
Regarding `O=[N+]([O-])c1ccc2nc(-c3ccc(O)c(O)c3O)[nH]c2c1` [Compound 4, 4-(6-Nitro-1H-benzimidazol-2-yl)-1,2,3-benzenetriol], the “effect on hepatocytes growth and proliferation (in words)” value in series [3] (compound 24 μM) was “significant effect on the growth and proliferation”; in series [3] (compound 33 μM, 24 hours) it was “significantly restored the growth and proliferation”; in series [3] (compound 49 μM), “as effective as 33 μM concentration in reducing the toxicity of AGEs”. Further, the “Percentage Inhibition (remaining growth inhibition of hepatocytes versus normal cells)” value in series [3] (compound 24 μM, 24 hours) is recorded as 35.8%; in series [3] (compound 33 μM, 24 hours), 34.3%; in series [3] (compound 49 μM, 24 hours) it was 22.2%. Moreover, the “Absorbance (Average), AGE-mediated diminished growth of the hepatocytes” value in series [3] (compound 24 μM, 24 hours) was 0.91; in series [3] (compound 33 μM, 24 hours), 0.93; in series [3] (compound 49 μM, 24 hours), 1.05. In series [1], the “anti-glycation activity (in words)” value is on record as “significant anti-glycation activity”. In series [2], this compound registered a cytotoxicity of 9.8%. In series [4] (setting [5]), the inhibition (in general, the drop in the measured response relative to a control, in per cent) at 24 µM turned out to be 63.6%. For the same compound, the inhibition at 33 µM in series [4] (setting [5]) was found to be 89.2%. Moreover, in series [4] (setting [5]), the inhibition at 49 µM was 93.4%. The “effect on ROS production (in words)” value in series [4] (compound 24 μM) is reported as “moderate activity against ROS production”; in series [4] (compound 33 μM), “significantly impaired the ROS production”; in series [4] (compound 49 μM) it was “inhibited the AGE-induced ROS production in rat hepatocytes in a remarkably significant manner”. Also, the “Fluorescence (Average), AGE-mediated intracellular ROS production” value in series [4] (compound 24 μM) was determined as 138.8; in series [4] (compound 33 μM) it was 97.5; in series [4] (compound 49 μM), 90.7.
With `O=[N+]([O-])c1ccc2nc(-c3c(O)cc(O)cc3O)[nH]c2c1` [Compound 5, 2-(6-Nitro-1H-benzimidazol-2-yl)-1,3,5-benzenetriol], the cytotoxicity in series [2] was found to be 4%.
With `O=[N+]([O-])c1ccc2nc(-c3ccc(O)c(O)c3)[nH]c2c1` [Compound 6, 4-(6-Nitro-1H-benzimidazol-2-yl)-1,2-benzenediol], the “anti-glycation activity (in words)” value in series [1] is “significant anti-glycation activity”. The compound also showed a cytotoxicity in series [2] of 3.4%.
The compound `O=[N+]([O-])c1ccc2nc(-c3ccc(O)cc3O)[nH]c2c1` [Compound 7, 4-(6-Nitro-1H-benzimidazol-2-yl)-1,3-benzenediol] returned a cytotoxicity in “in vitro” of 37.4%. In addition, in series [1], the “anti-glycation activity (in words)” value is recorded as “significant anti-glycation activity”.
`Cc1ccc(-c2nc3cc([N+](=O)[O-])ccc3[nH]2)cc1` [Compound 8, 2-(4-Methylphenyl)-6-nitro-1H-benzimidazole] yielded a cytotoxicity in series [2] of 59.2%.
Compound `O=[N+]([O-])c1ccc(-c2nc3cc([N+](=O)[O-])ccc3[nH]2)cc1` [Compound 9, 6-Nitro-2-(4-nitrophenyl)-1H-benzimidazole] gave a cytotoxicity in series [2] of 45.2%.
On the same count and under the same terms, next, `O=[N+]([O-])c1ccc2nc(-c3ccc(O)cc3)[nH]c2c1` [Compound 10, 4-(6-Nitro-1H-benzimidazol-2-yl) phenol]: 3.6%.
